Experimental data reported in patent US20060293264A1, “STAT3 decoy oligonucleotides and uses therefor” (priority 2004, published 2006).

What was measured:
Cyclin D1 = Cyclin D1 expression by immunoblotting in SCCHN cells in vitro; format: cell-based, human; conditions: 1483 cells; 25 μM, 6 days; p<0.0001
Protocol: (§1) Immunoblotting. Whole cell extracts were mixed with 2× sodium dodecyl sulfate (SDS) sample buffer (125 mmol/L Tris-HCL, pH 6.8; 4% SDS; 20% glycerol; 10% 2 mercaptoethanol) at 1:1 ratio and were heated for 5 min at 100° C. Proteins (50 μg/lane) were separated by 12.5% SDS-PAGE and transferred onto a nitrocellulose membrane (MSI; Westboro, Mass). Prestained molecular weight markers (GIBCO BRL; Gaithersburg, MD) were included in each gel. Membranes were blocked for 30 min in Tris-buffered saline (TBS: 10 mmol/L Tris-HCL, pH 7.5 and 150 mmol/L NaCl) with 0.5% Tween-20 (TBST) and 5% BSA. […] Quantification of Cyclin D1 and Bcl-xL was performed by using a Molecular Dynamics Personal Densitometer SI and IMAGEQUANT software (Image Products International, Chantilly, Va.). Immunoblotting bands were quantified by densitometry and the Molecular Analyst software (AlphaDigidoc 1000, Alpho-Innotech) with normalization of each band to their corresponding loading control (Xi, S., et al. J Biol Chem, 278: 31574-31583, 2003). […]
(§2) As shown above, treatment with the STAT3 decoy abrogates STAT3 target gene expression in vivo. […] The data were analyzed using parametric analysis of variance of a two-way factorial design. […]

Bcl-xL = Bcl-xL expression by immunoblotting in SCCHN cells in vitro; format: cell-based, human; conditions: 1483 cells; 25 μM, 6 days; p<0.0001
Protocol: as §1, §2

SCCHN cells = experiment: Incorporation of decoy into SCCHN cells, fluorescence labeled flow cytometry; format: cell-based; conditions: SCCHN cells in vitro, previously assessed
STAT5 = STAT5 activation by EMSA in harvested xenografts; format: in vivo; conditions: xenografts after 25 treatments; specificity
GAS-responsive element = experiment: pGAS-Luc reporter gene assay in UM-22B SCCHN cells; format: cell-based; conditions: UM-22B pGAS-Luc, 2 μg transfected, 24 hrs, IFN-γ stimulation
Protocol: FIG. 9 depicts the inhibition of reporter gene expression from GAS-responsive element in SCCHN cells. An SCCHN cell line, UM-22B, was used to generate a stable cell line expressing a pGAS-Luc reporter gene (pGAS-Luc plasmid carrying 4 repeats of GAS sequence: [NT] ID NO: 31), was obtained from Stratagene, Catalog number: 219091-51). The cells were transfected with 2 μg of the STAT3 decoy or the control mutant decoy. At 24 hrs after transfection, luciferase activity was measured and normalized to the total amount of protein.

[1] = system: normal mucosal epithelial cells; conditions: cited from earlier work
SCCHN cells (1483) = experiment: Annexin 5-Cy3 apoptosis assay in SCCHN cells; format: cell-based; conditions: 1483 cells; 25 μM, 6 days; p<0.0001
Protocol: SCCHN cells (1483) were treated with mutant control decoy (25 μM), or STAT3 decoy alone (25 μM), or cisplatin alone (20 μM), or STAT3 decoy (25 μM) plus cisplatin (20 μM). Mutant control decoy or STAT3 decoy was always applied for a total of 6 days, and cisplatin was added for the last 24 hr before harvesting. The effects of the STAT3 decoy plus cisplatin on apoptosis was assessed by an Annexin 5-Cy3 apoptosis assay (BioVision Research Products, 2455-D Old Middlefield Way, Mountain View, Calif. 94043 USA) and Bcl-xL and Cyclin D1 were examined using immunoblotting as described below.
Following treatment with STAT3 decoy plus cisplatin, SCCHN cells were detached by trypsinization, counted and pelleted (1000 r.p.m. for 5 min). Cell pellets were washed once with PBS (pH 7.4) and resuspended in 100 μl Annexin V binding buffer (10 mM HEPES, pH 7.4, 140 mM NaCl, 2.5 mM CaCl2). […] The membranes of apoptotic cells are stained a bright orange color when analyzed with a fluorescence microscope. The ratio (percentage) of apoptotic to total cells (apoptotic plus non-apoptotic cells) was calculated for each high power field. For each treatment, 5-10 high power fields of view were quantitated on each section.

p53-responsive element = experiment: p53-Luciferase reporter gene assay in UM-22B SCCHN cells; format: cell-based; conditions: UM-22B p53-Luc, 2 μg transfected, 24 hrs
Protocol: FIG. 8 depicts the inhibition of reporter gene expression from a p53-responsive element in SCCHN cells. An SCCHN cell line, UM-22B, was used to generate a stable cell line expressing a p53-Luciferase (p53-Luc) reporter gene (The p53-Luc plasmid carrying 14 repeats of p53 transcription recognition sequence: 5'-[…] ID NO: 30)), was obtained from Stratagene, Catalog number: 219085-51). The cells were transfected with 2 μg of the STAT3 decoy or the control mutant decoy. At 24 hrs after transfection, luciferase (Luc) activity was measured and normalized to the total amount of protein according to standard methods.

**Q.** Which results are given for “STAT3 decoy (sense CATTTCCCGTAAATC; antisense GATTTACGGGAAATG; phosphorothioate modified, further chemistry not given here; listed as Homo sapiens)”?
**A.** Cyclin D1 expression compared with mutant control decoy (Cyclin D1): decreased; Bcl-xL expression compared with mutant control decoy (Bcl-xL): decreased; cells in which decoy was detected (SCCHN cells): > 90%; STAT5 activation (STAT5): no abrogation; reporter gene expression from a GAS-responsive element (STAT1 reporter activity) (GAS-responsive element): inhibit; toxicity to normal mucosal epithelial cells [1]: lack toxicity; apoptosis compared with mutant control decoy (SCCHN cells (1483)): increased; p53 reporter activity (p53-responsive element): specifically interfere
